One assay deals with NCI-H23. The assay can be described thus: Antiproliferative activity against human NCI-H23 cells assessed as decrease in cell viability measured after 72 hrs by MTT assay. In kind it is functional, cell-based. Particulars: NCI-H23, 72 h. (In general: Formazan colour is commonly taken as a measure of viable cells.)
For a further assay, the system named is K562. Nature of the assay: Antiproliferative activity against human K562 cells assessed as decrease in cell viability measured after 72 hrs by MTT assay. In kind it is functional, cell-based. The conditions noted are these: K562, 72 h.
Assay [1] concerns MV4-11. Nature of the assay: Antitumor activity against human MV4-11 cells xenografted in BALB/c nude mouse assessed as tumor growth inhibition by measuring T/C ratio at 10 mg/kg, ip administered every two days for 14 days relative to control. The format is functional. Particulars: time 14 day.
The test system of assay [2] is MV4-11. Nature of the assay: Antiproliferative activity against human MV4-11 cells assessed as decrease in cell viability measured after 72 hrs by MTT assay. Particulars: MV4-11, 72 h. The format is functional, cell-based.
Assay [3] concerns MV4-11. The assay can be described thus: Induction of apoptosis in human MV4-11 cells xenografted in BALB/c nude mouse assessed as induction of PARP cleavage at 10 mg/kg, ip administered every two days for 14 days by Western blot analysis. The format is functional, organism-based. The conditions noted are these: time 14.0 day.
The subject of another assay is SK-BR-3. Nature of the assay: Antiproliferative activity against human SK-BR-3 cells assessed as decrease in cell viability measured after 72 hrs by MTT assay. The format is functional, cell-based. Particulars: SK-BR-3, 72 h.
The next assay concerns NCI-H929. The assay can be described thus: Antiproliferative activity against human NCI-H929 cells assessed as decrease in cell viability measured after 72 hrs by MTT assay. In kind it is functional, cell-based. Particulars: NCI-H929, 72 h.

The source made the active and inactive calls. The rule behind the calls is not given here.

Drawing on ChEMBL document CHEMBL4834480, “Discovery of 3,5-Dimethyl-4-Sulfonyl-1H-Pyrrole-Based Myeloid Cell Leukemia 1 Inhibitors with High Affinity, Selectivity, and Oral Bioavailability” (J Med Chem, 2021), this text covers IC50, T/C and Activity for 1 molecule.

In the case of `Cc1c2c(nn1C)CSCc1cc(n(C)n1)CSc1cc(c3ccccc3c1)OCCCc1c(C(=O)O)n(C)c3c-2c(Cl)ccc13` [AZD-5991], the IC50 (in general, the concentration that gives 50% inhibition) in the assay with NCI-H23 was 190 nM; in the assay with K562, 29600 nM; in the assay on MV4-11 [2], 24 nM; in the assay on SK-BR-3, 30000 nM; in the assay with NCI-H929, 36 nM. In the assay with MV4-11 [1], the T/C (in general, the ratio of treated to control) came to 5.18%. In addition, in the assay on MV4-11 [3], the outcome was Active.
